Here are results for eight molecules from patent publication US20200038399A1, “FORMULATIONS, METHODS, KIT, AND DOSAGE FORMS FOR TREATING BACTERIAL INFECTION” (Motif BioSciences Inc., priority 2016, published 2020).

Assay [1] relates to S. aureus 101. In words: MIC determination. The format is cell-based, Staphylococcus aureus. The following applies: for MIC: Staphylococcus aureus, 101, 18 h, read-out: Minimum inhibitory concentrations (MIC). The essentials: (§1)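 Microtiter dilution; CA-MHB for K. pneumoniae/S. aureus, BHI for M. catarrhalis, HTM (MHB + yeast extract + NAD/hematin) for H. influenzae. 37 °C, 18 h; 5% CO2 for H. influenzae and M. catarrhalis, air otherwise. MIC: no visible growth.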

Assay [2] deals with Moraxella catarrhalis RA 21. Briefly: MIC determination. It counts as cell-based. The following applies: M. catarrhalis RA 21, 18 hours at 37° C., 5% CO2; for MIC: Moraxella catarrhalis, RA21, read-out: Minimum inhibitory concentrations (MIC). The essentials:
as §1

Assay [3] has as its system Streptococcus pneumoniae ATCC 49619. Briefly: MIC determination. The following applies: S. pneumoniae 49619, 18 hours at 37° C., 5% CO2; for MIC: Streptococcus pneumoniae, ATCC49619, read-out: Minimum inhibitory concentrations (MIC). The format is cell-based.
In assay [4] the test system is Haemophilus influenzae ATCC 49766. In words: MIC determination. It counts as cell-based. The following applies: H. Influenza 49766, 18 hours at 37° C., 5% CO2; for MIC: Haemophilus influenzae, ATCC49766, read-out: Minimum inhibitory concentrations (MIC). The method in brief: as §1
Assay [5] relates to Staphylococcus aureus ATCC 25923. Briefly: MIC determination. The note with it: S. aureus 25923, 18 hours at 37° C.; for MIC: Staphylococcus aureus, ATCC25923, read-out: Minimum inhibitory concentrations (MIC). The format is cell-based. The essentials:
as §1

Assay [6] deals with Klebsiella pneumoniae ATCC 33495. Briefly: MIC determination. It counts as cell-based. The note with it: K. pneumonia 33495, 18 hours at 37° C.; for MIC: Klebsiella pneumoniae, ATCC33495, read-out: Minimum inhibitory concentrations (MIC). The essentials:
as §1

The test system of assay [7] is S. pneumoniae 1/1. Briefly: checkerboard synergy assay with iclaprim. It counts as cell-based, Streptococcus pneumoniae. The following applies: antibiotic in combination with iclaprim.
Assay [8] deals with S. pneumoniae 1/1. Briefly: MIC determination. It counts as cell-based, Streptococcus pneumoniae. The following applies: S. pneumoniae 1/1, 18 hours at 37° C., 5% CO2; for MIC: Streptococcus pneumoniae, read-out: Minimum inhibitory concentrations (MIC).
Assay [9] has as its system S. aureus 101. In words: checkerboard synergy assay with iclaprim. The format is cell-based, Staphylococcus aureus. The following applies: antibiotic in combination with iclaprim.
The subject of assay [10] is Moraxella catarrhalis RA 21. Briefly: checkerboard synergy assay with iclaprim. The format is cell-based. The note with it: antibiotic in combination with iclaprim; M. catarrhalis RA 21.
Assay [11] has as its system Streptococcus pneumoniae ATCC 49619. Briefly: checkerboard synergy assay with iclaprim. It counts as cell-based. The note with it: antibiotic in combination with iclaprim; S. pneumoniae 49619.
Assay [12] concerns Haemophilus influenzae ATCC 49766. Briefly: checkerboard synergy assay with iclaprim. The format is cell-based. The note with it: antibiotic in combination with iclaprim; H. influenzae 49766.
The subject of assay [13] is Staphylococcus aureus ATCC 25923. In words: checkerboard synergy assay with iclaprim. It counts as cell-based. The following applies: antibiotic in combination with iclaprim; S. aureus 25923.
Assay [14] has as its system Klebsiella pneumoniae ATCC 33495. Briefly: checkerboard synergy assay with iclaprim. It counts as cell-based. The note with it: antibiotic in combination with iclaprim; K. pneumoniae 33495.

In the case of `COc1ccc(C[C@H](N)C(=O)N[C@H]2[C@@H](O)[C@H](n3cnc4c(N(C)C)ncnc43)O[C@@H]2CO)cc1` [Puromycin], the MIC in [1] is 16 mg/L; in assay [2], 4 mg/L; in assay [3], 8 mg/L; in assay [4] it was 8 mg/L; in [5], 32 mg/L; in assay [6], over 128 mg/L. Moreover, the MIC in assay [8] turned out to be 8 mg/L. For the same molecule, the “Σ FIC” value was 1.13-1.50 in assay [7]; 1.13-1.50 in assay [9]; 1.06-1.50 in assay [10]; 0.63-1.25 in [11]; 1.06-1.50 in assay [12]; 1.06-1.50 in assay [13]. Further, the “Σ FIC” value in assay [14] is 1.01-1.50. Moreover, the “Con (Conclusion)” value in assay [10], in [12] and in [14] was “Ind (Indifference (Ind))” each time.
As for `CCn1cc(C(=O)O)c(=O)c2cc(F)c(N3CCNCC3)cc21` [Norfloxacin], the MIC was 128 mg/L in assay [1]; 0.5 mg/L in assay [2]; 4 mg/L in [3]; 0.125 mg/L in assay [4]; 1 mg/L in assay [5]; 2 mg/L in assay [6]. For the same molecule, the MIC in [8] amounted to 4 mg/L. In addition, the “Σ FIC” value is 1.13-1.50 in assay [7]; 1.02-1.50 in assay [9]; 0.56-1.13 in [10]; 1.00-1.25 in assay [11]; 0.52-1.25 in assay [12]; 0.56-1.25 in assay [13]. The “Σ FIC” value in [14] is reported as 0.75-1.13. The “Con (Conclusion)” value in [10], in assay [12] and in [14] was “Ad (Additivity (Ad))” throughout.
`CC(=O)O[C@H]1C[C@@]2(C)[C@@H](C[C@@H](O)[C@H]3[C@@]4(C)CC[C@@H](O)[C@@H](C)[C@@H]4CC[C@@]32C)/C1=C(\CCC=C(C)C)C(=O)O` [Fusidic acid]: the MIC in [1] was 0.125 mg/L; in [2], under 0.008 mg/L; in assay [3] it was 4 mg/L; in [4], 1 mg/L; in [5] it was 0.25 mg/L; in assay [6], over 128 mg/L. Moreover, the MIC in assay [8] turned out to be 8 mg/L. Also, the “Σ FIC” value in [7] is 1.06-1.50; in assay [9], 1.06-1.50; in [10], 1.00-1.00; in [11], 1.13-1.50; in assay [12], 1.06-1.50; in assay [13], 2.03-2.50. Further, in assay [14], the “Σ FIC” value is 1.00-1.25. Further, the “Con (Conclusion)” value in assay [10], in [12] and in assay [14] was “Ind (Indifference (Ind))” throughout.
`CO[C@@]1(NC(=O)C(C(=O)O)c2ccc(O)cc2)C(=O)N2C(C(=O)O)=C(CSc3nnnn3C)CO[C@@H]21` (some centres unmarked) [Moxalactam]: the MIC in assay [1] was 4 mg/L; in assay [2], 2 mg/L; in assay [3], 1 mg/L; in assay [4], 1 mg/L; in assay [5] it was 1 mg/L; in [6] it was 8 mg/L. Also, in [8], the MIC stood at 4 mg/L. Moreover, the “Σ FIC” value in [7] is 1.13-1.50; in assay [9], 0.63-1.25; in assay [10], 1.00-1.25; in [11] it was 1.00-1.25; in assay [12], 1.06-1.50; in assay [13] it was 0.56-1.25. Moreover, the “Σ FIC” value in [14] is given as 0.75-1.25. Further, the entries for the “Con (Conclusion)” value in assay [10], in assay [12] and in assay [14] were “Ind (Indifference (Ind))”, “Ind (Indifference (Ind))” and “Ad (Additivity (Ad))”, respectively.
As to `CC1(C)S[C@@H]2[C@H](NC(=O)Cc3ccccc3)C(=O)N2[C@H]1C(=O)O` [Penicillin G], the “Minimum inhibitory concentrations (MIC)” value came out at 128 mg/L in [1] (S. aureus 101, 18 hours at 37° C.); 16 mg/L in [2]; 0.25 mg/L in assay [3]; 0.25 mg/L in assay [4]; 0.031 mg/L in assay [5]; 128 mg/L in assay [6]. The “Minimum inhibitory concentrations (MIC)” value in assay [8] amounted to 4 mg/L. For the same molecule, the “Con (Conclusion)” value in assay [7] is listed as “Ad (Additivity (Ad))”; in assay [9], “Ind (Indifference (Ind))”; in assay [10] it was “Ind (Indifference (Ind))”; in assay [11], “Ind (Indifference (Ind))”; in assay [12], “Ind (Indifference (Ind))”; in [13], “Ind (Indifference (Ind))”. In addition, the “Con (Conclusion)” value in assay [14] was “Ad (Additivity (Ad))”. Besides, the “Σ FIC” value is on record as 0.75-1.13 in assay [7]; 1.00-1.25 in assay [9]; 1.13-1.50 in assay [10]; 1.00-1.25 in [11]; 1.03-1.50 in assay [12]; 1.00-1.25 in assay [13]. Besides, the “Σ FIC” value in [14] is 0.52-1.25.
In the case of `CCN1CCN(C(=O)N[C@@H](C(=O)N[C@@H]2C(=O)N3[C@@H]2SC(C)(C)[C@@H]3C(=O)O)c2ccccc2)C(=O)C1=O` [Piperacillin], the MIC in [1] was over 128 mg/L; in [2], 0.25 mg/L; in [3], 2 mg/L; in [4], 0.031 mg/L; in assay [5] it was 0.5 mg/L; in [6], 32 mg/L. The MIC in assay [8] is 8 mg/L. Moreover, the “Σ FIC” value in assay [7] is recorded as 0.63-1.13; in assay [9] it was 1.01-1.50; in [10], 1.03-1.50; in assay [11], 1.02-1.50; in assay [12] it was 0.54-1.25; in assay [13], 1.06-1.50. In assay [14], the “Σ FIC” value is 0.53-1.25. Besides, the figures for the “Con (Conclusion)” value in assay [10], in assay [12] and in assay [14] were “Ind (Indifference (Ind))”, “Ad (Additivity (Ad))” and “Ad (Additivity (Ad))”, respectively.
For `C[C@H]1c2cccc(O)c2C(=O)C2=C(O)[C@]3(O)C(=O)C(C(N)=O)=C(O)[C@@H](N(C)C)[C@@H]3[C@@H](O)[C@@H]21` [Doxycycline], the MIC in [1] is 16 mg/L; in [2] it was 0.5 mg/L; in [3], 0.5 mg/L; in assay [4], 0.5 mg/L; in [5] it was 0.5 mg/L; in assay [6], over 128 mg/L. Moreover, in assay [8], the MIC is 2 mg/L. For the same molecule, the “Σ FIC” value in assay [7] is recorded as 1.25-1.50; in assay [9], 1.06-1.50; in [10] it was 1.02-1.50; in assay [11], 1.02-1.51; in [12] it was 1.00-1.00; in assay [13], 1.02-1.50. In assay [14], the “Σ FIC” value is 1.01-1.50. For the same molecule, the “Con (Conclusion)” value in assay [10], in [12] and in [14] was “Ind (Indifference (Ind))” throughout.
`C[C@@H]1O[C@@H]1P(=O)(O)O` [Fosfomycin]: the MIC in [1] is 64 mg/L; in assay [2] it was 128 mg/L; in assay [3] it was 32 mg/L; in assay [4], 0.062 mg/L; in [5], 8 mg/L; in [6], over 128 mg/L. The MIC in assay [8] worked out at 32 mg/L. The “Σ FIC” value in assay [7] is 1.00-1.06; in assay [9], 1.03-1.50; in [10], 1.02-1.50; in assay [11] it was 1.06-1.50; in assay [12] it was 0.74-1.12; in assay [13] it was 1.13-1.50. Further, the “Σ FIC” value in assay [14] is reported as 1.01-1.50. For the same molecule, the “Con (Conclusion)” value is recorded as “Ind (Indifference (Ind))” in [10], “Ad (Additivity (Ad))” in [12] and “Ind (Indifference (Ind))” in [14].
